This assay has as its system EAE (experimental autoimmune encephalomyelitis). The assay is described as follows: EAE semi-therapeutic vaccine study (clinical score, EAE-free mice). The format is in vivo, C57BL/6 mice. The settings on record: intravenous injection on days 4, 7 and 10 after EAE induction (semi-therapeutics). As for the experimental part:
EAE was induced in female C57BL/6 mice aged 10-11 weeks using a kit (EK-2110) from Hooke Laboratory (Lawrence, Mass., USA). Briefly, on day 0, mice were subcutaneously injected with an emulsion containing MOG35-55 peptide and complete Freund's adjuvant (CFA), in the lower and upper back. After 2 and 24 h, the animals were intraperitoneally injected with pertussis toxin (PTX) according to the manufacturer's instructions. EAE clinical score was evaluated after day 8, post-EAE induction based on the standard protocol in a blinded manner (0, no obvious symptoms; 0.5, tip of tail was limp; 1, limp tail; 1.5, limp tail and hind leg inhibition; 2, limp tail and weakness of hind legs; 2.5, limp tail and dragging of hind legs; 3, complete paralysis of hind legs; 3.5, complete paralysis of hind legs and hind legs together on one side of the body; 4, full hind leg and partial front leg paralysis; 4.5 full hind leg and partial front leg paralysis, no movement). Paralyzed mice were given easier access to water and food. Mice were euthanized if any of the following conditions were observed unable to eat, unresponsive when scored as 4, when scored as 4 for two consecutive days, both hind limbs and forelimbs were completely paralyzed. […]

With “myelin oligodendrocyte glycoprotein (MOG) peptide 35-55 [soluble MOG]”, the “EAE progression / development (clinical score)” value is reported as “slightly delayed EAE progression”.

These data come from patent US20230241190A1, “VACCINE FOR TREATING MULTIPLE SCLEROSIS” (RESEARCH & BUSINESS FOUNDATION SUNGKYUNKWAN UNIVERSITY, priority 2022, published 2023).
